Experimental data taken from ChEMBL document CHEMBL1201862, “PubChem BioAssay data set” (2004).
Calls of active or inactive are those of the source.

How the values were obtained:
Leucine aminopeptidase = target: T1, Leucine aminopeptidase (Plasmodium falciparum 3D7, UniProt Q8IL11); experiment: P. falciparum M17LAP inhibitors, primary screen, biochemical, fluorogenic H-Leu-NHMec substrate, 1536-well (AID 1619); type: functional
T1 sequence (Q8IL11 whole entry): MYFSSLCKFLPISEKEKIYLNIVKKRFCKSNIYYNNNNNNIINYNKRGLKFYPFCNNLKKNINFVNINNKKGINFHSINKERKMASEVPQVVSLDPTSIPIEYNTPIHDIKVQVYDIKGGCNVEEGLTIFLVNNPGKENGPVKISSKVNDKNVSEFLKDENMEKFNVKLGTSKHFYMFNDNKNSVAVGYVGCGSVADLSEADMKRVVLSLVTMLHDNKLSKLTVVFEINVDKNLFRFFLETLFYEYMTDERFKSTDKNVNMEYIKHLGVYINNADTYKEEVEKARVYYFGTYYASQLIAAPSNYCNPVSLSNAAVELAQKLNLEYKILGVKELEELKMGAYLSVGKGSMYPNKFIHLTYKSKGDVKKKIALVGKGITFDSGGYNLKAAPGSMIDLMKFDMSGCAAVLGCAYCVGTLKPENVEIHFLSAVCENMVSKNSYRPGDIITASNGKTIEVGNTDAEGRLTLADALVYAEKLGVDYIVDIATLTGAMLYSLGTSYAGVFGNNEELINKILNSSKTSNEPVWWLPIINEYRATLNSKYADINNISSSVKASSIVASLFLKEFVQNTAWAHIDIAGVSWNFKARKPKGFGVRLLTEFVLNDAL

[1] = Vero E6 cell cytotoxicity, dose response, cytotoxicity control for non-replicating M. tuberculosis project, secondary assay (AID 492998); type: functional, VeroE6; conditions: Vero C1008
H9c2 = experiment: cells; type: functional, cell-based; conditions: Rattus norvegicus, H9c2, Myocardium;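 further: confirmatory concentration-response retest of ultra-high-throughput screening hits for modulation of myocardial damage; cell death induced by hydrogen peroxide oxidative stress; compound pretreatment for 60 min then peroxide exposure for 2 h; potency is for protecting the cells against peroxide damage rather than for killing them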
[2] = HepG2 cell cytotoxicity, dose response, cytotoxicity control for non-replicating M. tuberculosis project (AID 489018); type: functional; conditions: Mycobacterium tuberculosis
[3] = THP-1 cell cytotoxicity, dose response, cytotoxicity control for non-replicating M. tuberculosis project (AID 489025); type: functional
cells = type: functional
Genome polyprotein = Genome polyprotein (dengue virus type 2, UniProt P29990); experiment: flavivirus cap methylation enzyme inhibition – biochemical, confirmation dose response, primary screen (AID 588689); type: functional
[4] = microbe, parasite or virus in culture; type: functional; conditions: Mycobacterium tuberculosis
[5] = fluconazole-exposed Candida albicans growth modulators – fluorescence, retest, confirmation (AID 2467); type: functional, cell-based
[6] = NIH-3T3 fibroblast cytotoxicity, dose response, cytotoxicity control, cell-based, fluorescence, Alamar Blue, secondary assay (AID 2327); type: functional;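 further: NIH-3T3 mouse fibroblasts cultured with fluconazole at 8 µg/mL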
Estrogen receptor beta [7] = target: T2, Estrogen receptor beta (Homo sapiens, UniProt Q92731); experiment: blockers of SRC-3 recruitment to ERβ – biochemical, ELISA, streptavidin-HRP readout, orthogonal assay, confirmation (AID 1060)
[8] = target: T3, DNA repair and recombination protein RAD54-like (Homo sapiens, UniProt Q92698); experiment: RAD54 Holliday junction migration blockers – biochemical, fluorescence, cherry-picked samples, dose series, confirmation (AID 651657); type: functional
T3 sequence (Q92698 whole entry): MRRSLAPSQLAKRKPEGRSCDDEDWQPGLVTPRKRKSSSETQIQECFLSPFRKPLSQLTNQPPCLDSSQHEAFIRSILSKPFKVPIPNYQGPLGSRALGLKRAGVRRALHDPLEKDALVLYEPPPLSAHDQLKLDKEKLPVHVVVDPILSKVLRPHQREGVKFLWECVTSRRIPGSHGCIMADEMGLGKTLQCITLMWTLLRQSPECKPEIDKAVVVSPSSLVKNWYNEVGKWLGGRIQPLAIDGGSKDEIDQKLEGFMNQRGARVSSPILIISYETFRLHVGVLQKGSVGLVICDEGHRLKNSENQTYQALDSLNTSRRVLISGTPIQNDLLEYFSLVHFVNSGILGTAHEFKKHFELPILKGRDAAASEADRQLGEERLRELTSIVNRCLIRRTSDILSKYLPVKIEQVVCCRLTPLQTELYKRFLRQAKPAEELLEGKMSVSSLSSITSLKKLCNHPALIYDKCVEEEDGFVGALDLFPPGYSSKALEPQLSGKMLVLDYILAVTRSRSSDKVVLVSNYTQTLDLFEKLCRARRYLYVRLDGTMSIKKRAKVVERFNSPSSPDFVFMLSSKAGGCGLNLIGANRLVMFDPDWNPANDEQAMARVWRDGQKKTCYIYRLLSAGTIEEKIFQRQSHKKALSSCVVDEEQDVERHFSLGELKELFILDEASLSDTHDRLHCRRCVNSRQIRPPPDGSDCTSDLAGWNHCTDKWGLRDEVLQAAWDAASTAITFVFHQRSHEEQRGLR

[9] = target: T4, Histone-lysine N-methyltransferase NSD2 (Homo sapiens, UniProt O96028); type: biochemical
T4 sequence (O96028 whole entry): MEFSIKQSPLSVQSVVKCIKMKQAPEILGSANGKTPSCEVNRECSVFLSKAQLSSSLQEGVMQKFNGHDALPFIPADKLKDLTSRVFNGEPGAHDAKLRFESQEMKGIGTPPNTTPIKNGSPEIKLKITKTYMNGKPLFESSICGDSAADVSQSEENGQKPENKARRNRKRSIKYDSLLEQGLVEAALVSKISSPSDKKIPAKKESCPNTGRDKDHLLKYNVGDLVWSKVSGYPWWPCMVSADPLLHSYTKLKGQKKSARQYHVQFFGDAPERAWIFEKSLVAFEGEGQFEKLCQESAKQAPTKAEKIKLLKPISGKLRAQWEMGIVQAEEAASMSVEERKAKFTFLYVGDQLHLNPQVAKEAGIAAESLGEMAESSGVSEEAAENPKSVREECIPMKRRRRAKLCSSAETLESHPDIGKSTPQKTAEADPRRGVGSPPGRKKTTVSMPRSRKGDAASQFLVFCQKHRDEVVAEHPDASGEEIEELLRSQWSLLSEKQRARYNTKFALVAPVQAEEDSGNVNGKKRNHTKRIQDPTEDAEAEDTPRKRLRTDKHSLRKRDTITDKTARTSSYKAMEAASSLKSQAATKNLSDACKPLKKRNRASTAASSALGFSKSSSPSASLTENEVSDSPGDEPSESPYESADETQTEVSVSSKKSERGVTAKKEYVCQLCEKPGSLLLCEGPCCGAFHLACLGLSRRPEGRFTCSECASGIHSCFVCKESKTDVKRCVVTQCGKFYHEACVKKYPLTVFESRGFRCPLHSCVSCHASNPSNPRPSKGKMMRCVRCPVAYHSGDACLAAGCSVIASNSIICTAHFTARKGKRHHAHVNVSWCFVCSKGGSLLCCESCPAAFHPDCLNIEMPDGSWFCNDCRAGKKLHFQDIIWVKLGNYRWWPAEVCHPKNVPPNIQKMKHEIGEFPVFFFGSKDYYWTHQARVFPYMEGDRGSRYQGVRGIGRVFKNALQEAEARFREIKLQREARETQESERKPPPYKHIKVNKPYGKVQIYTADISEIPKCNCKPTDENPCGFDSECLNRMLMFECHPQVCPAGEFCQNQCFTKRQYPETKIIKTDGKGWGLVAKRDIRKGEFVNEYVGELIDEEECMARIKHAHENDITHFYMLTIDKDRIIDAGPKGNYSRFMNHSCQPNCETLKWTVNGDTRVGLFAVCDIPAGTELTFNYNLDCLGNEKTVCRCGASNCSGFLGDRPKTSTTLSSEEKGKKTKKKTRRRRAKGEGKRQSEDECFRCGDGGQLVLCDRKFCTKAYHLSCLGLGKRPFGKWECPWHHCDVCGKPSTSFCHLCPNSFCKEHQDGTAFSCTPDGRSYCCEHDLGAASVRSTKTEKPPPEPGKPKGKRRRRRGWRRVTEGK

[10] = target: T5, DNA repair protein RAD52 homolog (Homo sapiens, UniProt P43351); type: functional, biochemical
T5 sequence (P43351 whole entry): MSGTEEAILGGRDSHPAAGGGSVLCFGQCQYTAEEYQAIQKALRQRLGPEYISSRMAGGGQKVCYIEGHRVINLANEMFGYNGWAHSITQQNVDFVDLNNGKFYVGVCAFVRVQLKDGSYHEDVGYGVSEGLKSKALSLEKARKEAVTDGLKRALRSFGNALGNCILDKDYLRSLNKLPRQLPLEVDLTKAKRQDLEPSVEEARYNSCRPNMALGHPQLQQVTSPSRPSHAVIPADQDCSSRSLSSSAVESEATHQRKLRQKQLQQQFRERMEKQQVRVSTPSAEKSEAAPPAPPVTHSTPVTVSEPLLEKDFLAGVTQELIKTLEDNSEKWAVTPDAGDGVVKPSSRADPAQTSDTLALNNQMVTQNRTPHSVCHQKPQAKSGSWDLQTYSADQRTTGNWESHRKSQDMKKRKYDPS

Estrogen receptor beta [11] = target: T2, Estrogen receptor beta
[12] = CellTiter-Glo luminescence survival assay, SW480 colon tumor line, concentration-response curve, half-maximal inhibitory concentration (AID 1117338); type: functional
[13] = HCT116 cell viability decrease, GSK3B pretreatment – CellTiter-Glo, IC50, dose response (AID 1117339); type: functional; conditions: HCT-116
[14] = cytotoxicity toward Colo320 cells – cell-based, CellTiter-Glo luminescence, IC50, dose response (AID 1117334); type: functional; conditions: COLO 320
[15] = cytotoxicity toward HCT116 cells – cell-based, CellTiter-Glo luminescence, IC50, dose response (AID 1117332); type: functional; conditions: HCT-116
[16] = RKO cell viability reduction, dose response, CellTiter-Glo luminescence (AID 1117322); type: functional
[17] = cytotoxicity toward HT-29 cells – cell-based, CellTiter-Glo luminescence, IC50, dose response (AID 1117330); type: functional
[18] = Reduced DLD-1 viability, concentration-response, CellTiter-Glo luminescence (AID 1117352); type: functional
[19] = SNU-C1 cell viability reduction, dose response, CellTiter-Glo luminescence (AID 1117323); type: functional, cell-based
[20] = blockade of melanocortin 4 receptor signaling – cell-based, plate reader, cherry pick, counter-screen for LGR2 antagonist project, dose response (AID 743444); type: functional;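 further: transfected HEK 293 cells stimulated with alpha-MSH peptide; potency of inhibitors of the alpha-MSH evoked signal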
[21] = A549 cell cytotoxicity, dose response, cytotoxicity control, plate reader, cherry-pick, antagonist series (AID 743412); type: functional, cell-based

T2 sequence (Q92731 whole entry): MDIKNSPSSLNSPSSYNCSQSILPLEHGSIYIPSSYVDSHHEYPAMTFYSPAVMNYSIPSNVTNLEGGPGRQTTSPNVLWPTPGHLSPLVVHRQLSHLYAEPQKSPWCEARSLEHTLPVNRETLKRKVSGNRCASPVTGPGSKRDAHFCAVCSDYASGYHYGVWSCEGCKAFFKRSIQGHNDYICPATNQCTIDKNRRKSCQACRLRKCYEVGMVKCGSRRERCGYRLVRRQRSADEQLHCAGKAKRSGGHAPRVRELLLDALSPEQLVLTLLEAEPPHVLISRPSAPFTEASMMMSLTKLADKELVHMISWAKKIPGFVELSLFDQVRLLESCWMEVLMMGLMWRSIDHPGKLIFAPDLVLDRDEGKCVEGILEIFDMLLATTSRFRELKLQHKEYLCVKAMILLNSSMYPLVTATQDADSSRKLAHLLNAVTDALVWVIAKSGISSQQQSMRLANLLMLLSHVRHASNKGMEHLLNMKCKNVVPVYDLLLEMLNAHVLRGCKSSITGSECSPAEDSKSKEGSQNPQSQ
Chain of Genome polyprotein (P29990 2492-3391 limits assumed): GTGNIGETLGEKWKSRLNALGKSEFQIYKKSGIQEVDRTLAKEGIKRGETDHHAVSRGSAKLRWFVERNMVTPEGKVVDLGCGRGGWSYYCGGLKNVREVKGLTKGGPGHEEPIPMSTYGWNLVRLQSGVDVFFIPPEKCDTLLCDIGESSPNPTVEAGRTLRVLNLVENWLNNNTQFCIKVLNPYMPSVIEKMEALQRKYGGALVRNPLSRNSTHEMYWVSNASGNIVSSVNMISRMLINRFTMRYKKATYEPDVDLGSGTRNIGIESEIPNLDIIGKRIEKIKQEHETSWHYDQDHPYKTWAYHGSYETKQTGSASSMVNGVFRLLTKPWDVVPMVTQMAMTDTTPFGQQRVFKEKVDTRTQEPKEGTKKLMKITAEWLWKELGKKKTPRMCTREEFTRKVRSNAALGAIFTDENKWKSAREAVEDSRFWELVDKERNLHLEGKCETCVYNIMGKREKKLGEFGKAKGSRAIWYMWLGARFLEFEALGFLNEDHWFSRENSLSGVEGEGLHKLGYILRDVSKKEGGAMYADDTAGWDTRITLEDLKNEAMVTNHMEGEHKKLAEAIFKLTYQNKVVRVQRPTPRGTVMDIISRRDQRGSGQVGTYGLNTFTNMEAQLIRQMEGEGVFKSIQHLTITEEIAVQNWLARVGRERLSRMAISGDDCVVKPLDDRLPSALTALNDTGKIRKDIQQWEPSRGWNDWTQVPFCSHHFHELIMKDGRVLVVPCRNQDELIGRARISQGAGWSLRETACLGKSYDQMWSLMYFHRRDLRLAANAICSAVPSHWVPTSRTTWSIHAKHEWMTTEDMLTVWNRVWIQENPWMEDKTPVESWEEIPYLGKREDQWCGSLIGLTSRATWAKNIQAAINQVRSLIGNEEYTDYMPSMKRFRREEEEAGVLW

Compound	IC50 [12]	IC50 [13]	IC50 [14]	IC50 [15]	IC50 [16]	IC50 [17]	IC50 [18]	IC50 [19]	further results
O=C(O)COc1ccccc1/C=C1\SC(=O)N(Cc2ccc(F)cc2)C1=O	–	–	–	–	–	–	–	–	IC50 (Leucine aminopeptidase): 34.8 µM (active)
CCOC(=O)Cc1c(C)nc2c(-c3ccc(Cl)cc3)cnn2c1O	–	–	–	–	–	–	–	–	CC50 [1]: 17.5 µM (active); IC50 (H9c2): > 79 µM (inactive); CC50 [2]: > 20 µM (active); CC50 [3]: 29 µM (active); IC50 (cells): 6.28 µM (active)
O=C(O)CCc1nnc(SCC(=O)Nc2ccc(Br)cc2)nc1O	–	–	–	–	–	–	–	–	IC50 (Leucine aminopeptidase): 2.45 µM (active)
CCCCCCSc1nc(O)c(C2OC(=O)c3c2ccc(OC)c3OC)c(=O)n1CC (stereo unspecified)	–	–	–	–	–	–	–	–	IC50 (Leucine aminopeptidase): 3 µM (active); IC50 (Genome polyprotein): 56.9 µM (active)
CCCCN(C)S(=O)(=O)c1ccc(C(=O)Nc2nnc(-c3ccco3)o2)cc1	–	–	–	–	–	–	–	–	CC50 [4]: 11.6 µM (active); CC50 [1]: 6.27 µM (active); CC50 [2]: 12.5 µM (active); EC50 [5]: 2.63 µM (active); EC50 [6]: > 160 µM (inconclusive); CC50 [3]: 10.5 µM (active); IC50 (cells): 6.64 µM (active)
COCCOC(=O)c1c(C)oc2ccc(NS(=O)(=O)c3ccc(C(=O)O)cc3)cc12	–	–	–	–	–	–	–	–	IC50 (Estrogen receptor beta [7]): 3.82 µM (not active)
CCN(CC)CCNc1nc(SC)nc2sc3c(c12)CCN(C)C3	–	–	–	–	–	–	–	–	AC50 [8]: 95.3 µM (active); AC50 [9]: > 20 µM (inactive); AC50 [10]: 5.18 µM (active)
Cc1cc(C)c(C(=O)COc2cccnc2[N+](=O)[O-])cc1C	–	–	–	–	–	–	–	–	IC50 (Estrogen receptor beta [7]): > 50 µM (not active); IC50 (Estrogen receptor beta [11]): 7.21 µM (active)
COC(=O)C1=C(C)NC(C)=C(C(=O)O[C@@H]2CCCN(Cc3ccccc3)C2)[C@@H]1c1cccc([N+](=O)[O-])c1	> 20 µM (inactive)	5.31 µM (inactive)	19.5 µM (inactive)	4.28 µM (active)	8.05 µM (inactive)	5.27 µM (inactive)	7.96 µM (inactive)	5.76 µM (inactive)	–
O=C(Cc1ccncc1)NCC[C@H]1CC[C@H](NC(=O)C2CCCC2)[C@H](CO)O1	–	–	–	–	–	–	–	–	AC50 [20]: 42.1 µM (active); AC50 [21]: > 52 µM (inactive)
CC1(C)[C@H](C=C(Cl)Cl)[C@@H]1C(=O)OCc1c(F)c(F)cc(F)c1F	> 20 µM (inactive)	> 20 µM (inactive)	> 20 µM (inactive)	> 20 µM (inactive)	> 20 µM (inactive)	> 20 µM (inactive)	> 20 µM (inactive)	> 20 µM (inactive)	–
CCCCC[C@@H](O)CC[C@H]1[C@@H]2Cc3cccc(OCC(=O)O)c3C[C@@H]2C[C@@H]1O	> 20 µM (inactive)	> 20 µM (inactive)	> 20 µM (inactive)	> 20 µM (inactive)	> 20 µM (inactive)	> 20 µM (inactive)	> 20 µM (inactive)	> 20 µM (inactive)	–
CCCCN1CCCC1C(=O)Nc1c(C)cc(C)cc1C (stereo unspecified) [BUMECAINE]	> 20 µM (inactive)	> 20 µM (inactive)	> 20 µM (inactive)	> 20 µM (inactive)	> 20 µM (inactive)	> 20 µM (inactive)	> 20 µM (inactive)	> 20 µM (inactive)	–
